Reference: publication PMC3131257, “Hypericum lanceolatum (Hypericaceae) as a potential source of new anti-malarial agents: a bioassay-guided fractionation of the stem bark” (Malaria Journal, 2011)
Converted amounts (≈) assume the structure as drawn. Counter-ions that a name gives are not always drawn. Like-named read-outs stand apart in the source and are kept apart here.

What was measured:
[1] = tested on: field isolate (SHF4) of Plasmodium falciparum; assay: anti-plasmodial drug sensitivity assay, pLDH method, SHF4 field isolate; format: cell-based; settings: for IC50: Plasmodium falciparum, pure compounds, pLDH assay
Protocol: (§1) The W2mef (MRA-615) strain was ordered from the Malaria Research and Reference Reagent Resource Centre (MR4, Manassas, VA, USA), and maintained in continuous culture. The SHF4 field isolate previously isolated from a malaria patient in Buea in the South West region of Cameroon, had been stored in liquid nitrogen at the Biotechnology Unit, University of Buea.
(§2) The field isolate and the laboratory strain of P. falciparum were grown and maintained in culture using the method of Trager and Jensen with some modification. All the chemicals except Albumax II (Gibco; Invitrogen, USA), were ordered from Sigma-Aldrich Inc (Germany). Cultures consisted of a 4% haematocrit suspension of O+ human erythrocytes in RPMI 1640 medium supplemented with a gentamicin solution at 0.01 mg/mL, 25 mM HEPES buffer, 25 mM NaHCO3, and 1% Albumax II. Cultures were fed with a gas mixture consisting of 5% CO2 and incubated at 37°C (CO2 incubator Heraeus, Hera cell 150; USA). The estimation of the parasitaemia as well as parasite visualization before incubation was done using both fluorescence (Acridine Orange) and normal light (Giemsa stain) microscopes.
(§3) The drug sensitivity assay was carried out in 96-well microtitration plates as described by Desjardins et al with some modifications. All stock solutions were sterilized by passing them through a 0.2 μm syringe filter and stored at -20°C until required. Similarly, a 2 μg/mL stock solution of quinine dihydrochloride (Rotexmedica, Trittau, Germany) was prepared and used as positive control. The parasitaemia was measured using the parasite lactate dehydrogenase (pLDH) assay.
(§4) The pLDH assay generates optical density (OD) values at various concentrations of the drug as raw data. OD values from control wells represent the maximum amount of pLDH produced by parasites and OD values from blank wells (containing a 4% suspension of non parasitized red blood cells in malaria culture medium) represented background pLDH activity. A 100% growth value, which corresponds to maximum LDH activity, was obtained by subtracting the mean OD value of blank wells from that of control wells. Likewise, the growth value at each concentration of the drug was obtained by adjusting OD values from drug-treated wells for background pLDH activity (parasite-free red blood cells). These values were then expressed as a percentage of the maximal growth value and plotted against corresponding concentrations of the drug using the software HN-NonLin V1.1 [14] to generate log dose-response curves from which the 50%, 90%, 95% and 99% Inhibitory Concentrations (IC50, IC90, IC95 and IC99 respectively) were obtained. Each product was tested in triplicate in each of the two separate experiments, giving a total of six repeats per product and per concentration tested. The IC50 values obtained from these replicates were pooled and expressed as geometric mean IC50 values and the different means compared among themselves by independent samples t-test using SPSS Statistics 17.0 (Chicago, USA).

[2] = tested on: multidrug-resistant W2mef strain of P. falciparum; assay: microbe, parasite or virus in culture; format: cell-based, Plasmodium falciparum
Protocol: as §1, §2, §3, §4

[3] = cytotoxicity on LLC-MK2 monkey kidney epithelial cells; settings: monkey, LLC-MK2 monkey kidney epithelial cells, CC50 on LLC-MK2, pure compounds; five days incubation
Protocol: (§5) The cytotoxicity profiles of the extracts and pure compounds were estimated against LLC-MK2 monkey kidney epithelial cells according to the procedure previously described with some modifications. Cells were cultured under the same conditions as P. falciparum. Cells were distributed in 96-well plates at 20,000 cells per well in 100 μL culture medium, and allowed to attach and become confluent, for 24h. The medium was then removed completely the next day and 100 μL of fresh medium was added to all the wells, followed by 100 μL of crude extract (1000 μg/mL) or pure compounds (200 μg/mL) added in triplicate in row H. A two folds serial dilution was made upward to obtain concentration range of 250 - 3.90 μg/ml (crude extract) or 50 - 0.78 μg/ml (pure compounds), cells at row A serving as control without drug. The plates were incubated for five days at 37°C in 5% CO2 in air. Cells concentration and viability in the presence of extracts or pure compounds were compared with that of control cultures without extracts.

neural cells = settings: in vitro; cited from earlier work
[4] = tested on: CQ-sensitive T9-96 P. falciparum; settings: betulinic acid from Uapaca nitida root bark; cited from earlier work
[5] = tested on: W2 strain of P. falciparum; set-up: method as in PMID 18239315; settings: betulinic acid from Psorospermum glaberrimum; cited from earlier work
[6] = tested on: CQ-resistant K1 P. falciparum; settings: betulinic acid from Uapaca nitida root bark; cited from earlier work
[7] = tested on: LLC-MK2 monkey kidney epithelial cells; assay: cytotoxicity on LLC-MK2 monkey kidney epithelial cells; settings: pure compounds; five days incubation
Protocol: as §5

K1 = settings: against K1; cited from earlier work
P. falciparum = tested on: P. falciparum; set-up: method as in PMID 9581528; settings: growth of P. falciparum; cited from earlier work
[8] = Plasmodium falciparum, read-out: IC50 on W2mef, pure compounds, pLDH assay
[9] = Plasmodium falciparum, read-out: IC50 on W2mef, pure compounds, values expressed in μg/mL (Table 2 footnote *, text b34)
[10] = read-out: IC50 on W2mef, pure compounds, pLDH assay

O=C(c1cc(O)ccc1O)c1c(O)cccc1O [HLT2, 2,2',5,6'-tetrahydroxybenzophenone]
IC50 [1]: 13.4 ± 0.16 µM
IC50 [2, 8]: 55.1 ± 0.93 µM
CC50 at 5 days [3]: > 100 µg/mL

C=C(C)[C@@H]1CC[C@]2(C(=O)O)CC[C@]3(C)[C@H](CC[C@@H]4[C@@]5(C)CC[C@H](O)C(C)(C)[C@@H]5CC[C@]43C)[C@@H]12 [HLT1, 3-hydroxy-lup-20(29)-en-28-oic acid]
cytotoxic activity against neural cells (in words) (neural cells): no significant cytotoxic activity
IC50 [4]: 25.9 µg/mL (≈ 56.7 µM)
IC50 [5]: 5.1 µM
IC50 [6]: 19.6 µg/mL (≈ 42.9 µM)
IC50 [1]: 5.6 ± 0.13 µM
IC50 [2, 8]: < 5 µM
IC50 [2, 9]: < 5 µg/mL
IC50 [2, 10]: 4.5 ± 1.35 µM
CC50 on LLC-MK2 [7]: 25.00 ± 0.00 µg/mL (≈ 54.7 µM)

C=C[C@H]1C[N@@]2CC[C@H]1C[C@H]2[C@H](O)c1ccnc2ccc(OC)cc12 [QN, quinine dihydrochloride, reference compound]
IC50 [1]: 0.14 ± 0.05 µM
IC50 [2, 8]: 0.27 ± 0.04 µM
IC50 ([2]; Plasmodium falciparum, read-out: IC50 on W2mef, sub-extracts and fractions, pLDH assay): 0.27 ± 0.04 µg/mL

COc1ccc2c(=O)c3cccc(O)c3oc2c1 [HLT3, 5-hydroxy-3-methoxyxanthone]
IC50 [1]: 1.43 ± 0.48 µM
IC50 [2, 8]: < 5 µM
IC50 [2, 9]: < 5 µg/mL
IC50 [2, 10]: 3.26 ± 0.08 µM
CC50 at 5 days [3]: > 100 µg/mL

6-hydroxyluteolin-7-O-(1^2-a-rhamnoside
IC50 (K1): 2.13 µg/mL

garciniaxanthone
IC50 (P. falciparum): 0.96 µg/mL

COc1cccc2c(=O)c3ccc(O)cc3oc12 [HLT4, 3-hydroxy-5-methoxyxanthone]
IC50 [1]: 34.09 ± 0.12 µM
anti-plasmodial activity (in words) ([1]; against the field isolate): inactive
IC50 [2, 8]: 33.84 ± 0.2 µM
anti-plasmodial activity (in words) ([2]; against W2mef): inactive
CC50 on LLC-MK2 [7]: 12.50 ± 0.00 µg/mL (≈ 51.6 µM)
CC50 at 5 days [3]: 10 to 30 µg/mL (≈ 41.3 to 124 µM)
